Measurements reported in patent US20220288137A1, “Bifidobacterium Longum Subsp. Infantis CCFM687 and Fermented Food and Application Thereof” (Jiangnan University, priority 2018, published 2022).

Tested on: depressed mice (chronic unpredictable stress depression mouse model)
Assay: Butyric acid content in the caecum of depressed mice (GC-MS)
Assay type: in vivo, C57BL/6J mice
Conditions: 6 weeks intervention (CCFM687 10^9 cfu or fluoxetine 10 mg/kg), GC-MS of cecal content (FIG. 3)
Description: 32 6-week-old male C57BL/6J mice were selected. After one week of adaptation to the environment, the mice were randomly divided into four groups according to body weight: a control group, a model group, a fluoxetine intervention group, and a CCFM687 intervention group, each containing 8 mice.
Chronic unpredictable stress depression mouse model: 1-2 kinds of stimuli were randomly performed every day, and the performance time of stimuli every day was determined randomly to avoid the circadian rhythm. Each method was used for not more than three times, and the stimuli were performed for five weeks. The stimuli include: (1) fasting for 24 h; (2) water deprivation+empty bottle stimulus for 24 h; (3) tail pinching for 3 min; (4) wet padding for 24 h; (5) immobilization for 1-2 h; (6) 45° tilted cage for 24 h; (7) continuous lighting for 24 h; (8) no padding for 24 h; (9) forced swim for 15 min; and (10) separation for 24 h. […]
The mice in Example 2 were euthanized at the sixth weekend, and the content of the cecum of the mice was collected. […] 500 μL of supernatant was taken into a gas phase vial, and the contents of short-chain fatty acids (acetic acid, propionic acid, isobutyric acid, butyric acid and isovaleric acid) were measured by GC-MS. […] The analysis adopted a full scan mode, and the concentration of each short-chain fatty acid (μmol/g) was calculated by an external standard method. […]

For `CNCCC(Oc1ccc(C(F)(F)F)cc1)c1ccccc1` (stereo not shown) [fluoxetine], the “butyric acid content in the caecum / intestine” value was “has no regulating effect on the butyric acid content”.
